Laboratory results taken from PubChem BioAssay (NCI).
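Briefly, cells in 96-well plates were exposed to five compound concentrations for 48 h, and endpoints were estimated by linear interpolation. GI50 marks 50% less growth. Definition used: TGI = concentration required for complete inhibition of growth.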

Experiments:
Test in all cases: growth of human tumour cells (NCI), 48 h
[1] = tested on: RXF 393 renal
[2] = tested on: 786-0 renal
[3] = tested on: MALME-3M melanoma
[4] = tested on: LOX IMVI melanoma
[5] = tested on: UACC-62 melanoma
[6] = tested on: SN12C renal
[7] = tested on: SF-295 CNS
[8] = tested on: COLO 205 colon
[9] = tested on: HL-60(TB) leukemia
[10] = tested on: MDA-MB-435

| SMILES | TGI [1] [µM] | TGI [2] [µM] | TGI [3] [µM] | TGI [4] [µM] | TGI [5] [µM] | TGI [6] [µM] | TGI [7] [µM] | TGI [8] [µM] | TGI [9] [µM] | TGI [10] [µM] | GI50 [1] [µM] | GI50 [2] [µM] | GI50 [4] [µM] | GI50 [10] [µM] | GI50 [6] [µM] | GI50 [7] [µM] | GI50 [8] [µM] | GI50 [9] [µM] | GI50 [5] [µM] |
| --- | --- | --- | --- | --- | --- | --- | --- | --- | --- | --- | --- | --- | --- | --- | --- | --- | --- | --- | --- |
| COC(=O)C1CCC2(CC1)NC(=O)NC2=O (stereo unspecified) | > 100 | > 100 | > 100 | > 100 | > 100 | > 100 | > 100 | > 100 | > 100 | – | – | – | – | – | – | – | – | – | – |
| Cc1nn(C(=O)CC(=O)Nc2ccccc2Cl)c(C)c1N=Nc1ccccc1Cl | > 100 | > 100 | > 100 | > 100 | > 100 | > 100 | > 100 | > 100 | > 100 | – | – | – | – | – | – | – | – | – | – |
| O=C(Nc1cccc(Cl)c1)c1cc2cc(N=Nc3ccc(Br)cc3)ccc2oc1=O | > 100 | > 100 | > 100 | 45.1 | 39.1 | > 100 | > 100 | > 100 | – | – | – | – | – | – | – | – | – | – | – |
| Cn1c(N)cc(=O)nc1N | – | > 100 | > 100 | > 100 | > 100 | > 100 | > 100 | > 100 | > 100 | > 100 | – | – | – | – | – | – | – | – | – |
| C/C=C\C(C)=C/C(C)C(=O)CC(O)CC1CC(=O)NC(=O)C1 (stereo unspecified) | > 100 | > 100 | – | > 100 | > 64.1 | > 100 | > 100 | > 100 | > 100 | > 100 | – | – | – | – | – | – | – | – | – |
| COc1ccc(N2CCN(CC(=O)N3CCN(c4nnc(-c5ccc(Cl)cc5)c(-c5ccc(Cl)cc5)n4)CC3)CC2)cc1 | 23.7 | > 100 | – | > 100 | – | > 100 | > 100 | > 100 | > 100 | > 100 | 3.98 | 10 | 7.76 | 9.06 | 24.8 | 7.09 | 6.6 | 14.3 | – |
| O=C1OC2C(O)COC2(OCc2c[nH]c3ccccc23)C1O (stereo unspecified) (tested in a mixture with another compound) | > 100 | > 100 | > 100 | > 100 | > 100 | > 100 | > 100 | > 100 | > 100 | – | – | – | – | – | – | – | – | – | – |
| COc1ccc2nccc(C3OC(=O)N4CCC(=O)CC34)c2c1 (stereo unspecified) | > 100 | > 100 | – | > 100 | > 100 | > 100 | > 100 | > 100 | > 100 | – | – | – | – | – | – | – | – | – | – |
| CCCC1C2=C(C(=O)OC2=O)C2C(CC)CC3=C(C(=O)OC3=O)C12 (stereo unspecified) | – | > 100 | – | > 100 | > 100 | > 100 | > 100 | > 100 | > 100 | > 100 | – | – | – | – | – | – | – | – | – |
| O=C(/C=C\c1ccc(Cl)c(Cl)c1)c1ccccc1 | 26.6 | 21.6 | – | 4.48 | 21.6 | 19.9 | 23.2 | 29.7 | 29.1 | 16.7 | 12.3 | 8.07 | 2.07 | 4.48 | 6.77 | 10.9 | 13.6 | 5.46 | 9.33 |
| Cc1cn2cc(-c3ccncc3)nc2s1 | – | > 100 | > 100 | > 84.4 | > 100 | > 100 | > 100 | > 100 | > 41.6 | – | – | – | – | – | – | – | – | – | – |
